Data taken from ChEMBL document CHEMBL2440080, “Synthesis and biological evaluation of novel acylhydrazone derivatives as potential antitumor agents” (Bioorg Med Chem, 2013).

Assays:
Format in all cases: functional
RXF 393 = assay: Cytotoxicity against human RXF393 cells after 48 hrs by sulforhodamine B assay; conditions: RXF 393, 48 h
HOP-62 = assay: Cytotoxicity against human HOP62 cells after 48 hrs by sulforhodamine B assay; conditions: HOP-62, 48 h
RPMI-8226 = assay: Cytotoxicity against human RPMI8226 cells after 48 hrs by sulforhodamine B assay; conditions: RPMI-8226, 48 h
SF-295 = assay: Cytotoxicity against human SF295 cells after 48 hrs by sulforhodamine B assay; conditions: SF-295, 48 h
MOLT-4 = assay: Cytotoxicity against human MOLT4 cells after 48 hrs by sulforhodamine B assay; conditions: MOLT-4, 48 h
U-251 = assay: Cytotoxicity against human U251 cells after 48 hrs by sulforhodamine B assay; conditions: U-251, 48 h
SR = assay: Cytotoxicity against human SR cells after 48 hrs by sulforhodamine B assay
OVCAR-3 = assay: Cytotoxicity against human OVCAR3 cells after 48 hrs by sulforhodamine B assay; conditions: OVCAR-3, 48 h
HCT-15 = assay: Cytotoxicity against human HCT15 cells after 48 hrs by sulforhodamine B assay; conditions: HCT-15, 48 h
LOX IMVI = assay: Cytotoxicity against human LOXIMVI cells after 48 hrs by sulforhodamine B assay
NCI-H322M = assay: Cytotoxicity against human NCI-H322M cells after 48 hrs by sulforhodamine B assay
UACC-62 = assay: Cytotoxicity against human UACC62 cells after 48 hrs by sulforhodamine B assay; conditions: UACC-62, 48 h
OVCAR-4 = assay: Cytotoxicity against human OVCAR4 cells after 48 hrs by sulforhodamine B assay; conditions: OVCAR-4, 48 h
CCRF-CEM = assay: Cytotoxicity against human CCRF-CEM cells after 48 hrs by sulforhodamine B assay
T47D = assay: Cytotoxicity against human T47D cells after 48 hrs by sulforhodamine B assay
SNB-75 = assay: Cytotoxicity against human SNB75 cells after 48 hrs by sulforhodamine B assay; conditions: SNB-75, 48 h
SF-268 = assay: Cytotoxicity against human SF268 cells after 48 hrs by sulforhodamine B assay; conditions: SF-268, 48 h
HL-60(TB) = assay: Cytotoxicity against human HL-60(TB) cells after 48 hrs by sulforhodamine B assay; conditions: HL-60, 48 h
HCT-116 = assay: Cytotoxicity against human HCT116 cells after 48 hrs by sulforhodamine B assay; conditions: HCT-116, 48 h
IGROV-1 = assay: Cytotoxicity against human IGROV1 cells after 48 hrs by sulforhodamine B assay; conditions: IGROV-1, 48 h
NCI-H460 = assay: Cytotoxicity against human NCI-H460 cells after 48 hrs by sulforhodamine B assay; conditions: NCI-H460, 48 h
KM12 = assay: Cytotoxicity against human KM12 cells after 48 hrs by sulforhodamine B assay; conditions: KM12, 48 h
NCI/ADR-RES = assay: Cytotoxicity against human NCI/ADR-RES cells after 48 hrs by sulforhodamine B assay
DU-145 = assay: Cytotoxicity against human DU145 cells after 48 hrs by sulforhodamine B assay; conditions: DU-145, 48 h
HOP-92 = assay: Cytotoxicity against human HOP92 cells after 48 hrs by sulforhodamine B assay; conditions: HOP-92, 48 h
CAKI-1 = assay: Cytotoxicity against human CAKI-1 cells after 48 hrs by sulforhodamine B assay; conditions: CAKI-1, 48 h
OVCAR-8 = assay: Cytotoxicity against human OVCAR8 cells after 48 hrs by sulforhodamine B assay; conditions: OVCAR-8, 48 h
TK-10 = assay: Cytotoxicity against human TK10 cells after 48 hrs by sulforhodamine B assay; conditions: TK-10, 48 h
M14 = assay: Cytotoxicity against human M14 cells after 48 hrs by sulforhodamine B assay; conditions: M14, 48 h
[1] = Cytotoxicity against human EKVX cells after 48 hrs by sulforhodamine B assay
BT-549 = assay: Cytotoxicity against human BT549 cells after 48 hrs by sulforhodamine B assay; conditions: BT-549, 48 h
PC-3 = assay: Cytotoxicity against human PC3 cells after 48 hrs by sulforhodamine B assay; conditions: PC-3, 48 h
ACHN = assay: Cytotoxicity against human ACHN cells after 48 hrs by sulforhodamine B assay

| SMILES | GI50 (RXF 393) [µM] | GI50 (RPMI-8226) [µM] | GI50 (SF-295) [µM] | GI50 (U-251) [µM] | GI50 (SR) [µM] | GI50 (OVCAR-3) [µM] | GI50 (HCT-15) [µM] | GI50 (LOX IMVI) [µM] | GI50 (NCI-H322M) [µM] | GI50 (UACC-62) [µM] | GI50 (OVCAR-4) [µM] | GI50 (CCRF-CEM) [µM] | GI50 (T47D) [µM] | GI50 (SNB-75) [µM] | GI50 (SF-268) [µM] | GI50 (HL-60(TB)) [µM] | GI50 (HCT-116) [µM] | GI50 (IGROV-1) [µM] | GI50 (NCI-H460) [µM] | GI50 (KM12) [µM] | other results |
| --- | --- | --- | --- | --- | --- | --- | --- | --- | --- | --- | --- | --- | --- | --- | --- | --- | --- | --- | --- | --- | --- |
| CCOc1cccc(/C=N/NC(=O)Cc2ccc(Nc3ccnc(C(F)(F)F)c3)cc2)c1O | 3.16 | 0.501 | 3.98 | 1.58 | 0.316 | 0.398 | 1 | 1.58 | 2.51 | 1.58 | 0.794 | 0.316 | 2.51 | 12.6 | 1.26 | 1 | 1.26 | 2.51 | 1.58 | 3.98 | GI50 (HOP-62): 2.51 µM; GI50 (MOLT-4): 0.501 µM; GI50 (NCI/ADR-RES): 3.98 µM; GI50 (DU-145): 2 µM; GI50 (HOP-92): 2 µM; GI50 (CAKI-1): 2.51 µM; GI50 (OVCAR-8): 3.16 µM; GI50 (TK-10): 3.98 µM; GI50 (M14): 2 µM; GI50 [1]: 3.98 µM; GI50 (BT-549): 2.51 µM; GI50 (PC-3): 2 µM; GI50 (ACHN): 1.58 µM |
| CCOc1cccc(/C=N/NC(=O)c2ccc(Nc3ccnc(C(F)(F)F)c3)cc2)c1O | 0.398 | 0.398 | 1.26 | 1.58 | 0.251 | 0.316 | 0.631 | 0.631 | 1.26 | 0.794 | 0.794 | 0.501 | 1.58 | 0.631 | 1.26 | 1.26 | 0.398 | 0.501 | 0.501 | 1.58 | GI50 (HOP-62): 1.26 µM; GI50 (MOLT-4): 0.251 µM; GI50 (NCI/ADR-RES): 3.16 µM; GI50 (DU-145): 3.98 µM; GI50 (HOP-92): 0.631 µM; GI50 (CAKI-1): 0.631 µM; GI50 (OVCAR-8): 0.631 µM; GI50 (TK-10): 2.51 µM; GI50 (M14): 1.26 µM; GI50 [1]: 1 µM; GI50 (BT-549): 1.58 µM; GI50 (PC-3): 0.398 µM; GI50 (ACHN): 1 µM |
| O=C(N/N=C/c1ccc(O)cc1O)c1ccc(Nc2ccnc(C(F)(F)F)c2)cc1 | 12.6 | > 100 | 0.01 | 0.0631 | > 100 | 0.0251 | > 100 | 2.51 | 0.0199 | 0.0501 | 0.0398 | 0.0316 | 0.0794 | 3.98 | 0.0398 | 12.6 | 39.8 | 15.8 | > 100 | > 100 | GI50 (NCI/ADR-RES): > 100 µM; GI50 (DU-145): 20 µM; GI50 (HOP-92): 15.8 µM; GI50 (CAKI-1): 0.0501 µM; GI50 (OVCAR-8): 3.16 µM; GI50 (TK-10): 0.0501 µM; GI50 (M14): > 100 µM; GI50 [1]: 6.31 µM; GI50 (BT-549): 0.01 µM; GI50 (PC-3): 20 µM; GI50 (ACHN): 31.6 µM |
| O=C(Cc1ccc(Nc2ccnc(C(F)(F)F)c2)cc1)N/N=C/c1ccccc1O | 1.58 | 1 | 2.51 | 2 | 0.316 | 0.794 | 0.631 | 1 | 2.51 | 2 | 3.16 | 1.26 | 3.98 | 2 | 2.51 | 2.51 | 2 | 0.794 | 0.794 | 2 | GI50 (HOP-62): 2.51 µM; GI50 (MOLT-4): 1 µM; GI50 (NCI/ADR-RES): 3.16 µM; GI50 (DU-145): 5.01 µM; GI50 (HOP-92): 2.51 µM; GI50 (CAKI-1): 1 µM; GI50 (OVCAR-8): 2.51 µM; GI50 (TK-10): 7.94 µM; GI50 (M14): 2 µM; GI50 [1]: 3.16 µM; GI50 (BT-549): 2.51 µM; GI50 (PC-3): 0.794 µM; GI50 (ACHN): 1.58 µM |
| O=C(N/N=C/c1cc(Cl)ccc1O)c1ccccc1Nc1ccnc(C(F)(F)F)c1 | 0.398 | 0.158 | 0.398 | 0.316 | 0.316 | 0.501 | 0.158 | 0.251 | 0.398 | 0.398 | 0.251 | 0.0794 | 0.794 | 0.316 | 0.251 | 0.316 | 0.2 | 0.316 | 0.316 | 0.631 | GI50 (HOP-62): 0.251 µM; GI50 (MOLT-4): 0.2 µM; GI50 (NCI/ADR-RES): 0.398 µM; GI50 (DU-145): 0.316 µM; GI50 (HOP-92): 0.501 µM; GI50 (CAKI-1): 0.398 µM; GI50 (OVCAR-8): 0.631 µM; GI50 (TK-10): 0.501 µM; GI50 (M14): 0.316 µM; GI50 [1]: 0.2 µM; GI50 (BT-549): 0.794 µM; GI50 (PC-3): 0.631 µM; GI50 (ACHN): 0.316 µM |
